Data set [1] is described as follows: Particle size analysis (granulometry) by laser dispersion. The conditions noted are these: dispersing fluid silicone oil. Format: physicochemical. As for the experimental part:
Particle size can be determined, for example by laser dispersion on a Beckman Coulter LS13320 provided with a MLM (Micro Liquid Module) (measure range: 0.4 to 2000 μm; optic model: Fraunhofer.rdf, PIDS included).
Particle size analysis (granulometry) was performed by laser dispersion on a Beckman Coulter LS13320 provided with a MLM (Micro Liquid Module) (measure range: 0.4 to 2000 μm; optic model: Fraunhofer.rdf, PIDS included).
In a beaker about 10 ml of silicone oil and a microspoon of sample were placed. The sample was homogeneized by pipetting it repeatedly with a pasteurized pipette and by subjecting it to ultrasonic treatment (30 KHz; 200 W). The module was cleaned and filled with silicone oil as a dispersing fluid. Before each analysis, an optical alignment of the laser and a measure of the instrument noise was made.

Data set [2] is described as follows: Dissolution rate of ubiquinone vs cocrystals in FaSSIF-v2 medium (small-scale dissolution assay). To be noted: for Dissolution rate compared with ubiquinone (in words): FaSSIF-v2 medium pH 6.50, 25° C.; for Dissolution rate: tablet 8 mm, exposed surface 0.5 cm^2, FaSSIF-v2 medium pH 6.50, 25° C., Noyes-Whitney fit. Type of data set: physicochemical. As for the experimental part: 1. Dissolution Rate Experiments • Tablet production: tablets of 8 mm diameter were made using a manual hydraulic tablet press (Applied Measurements Ltd, UK) up to a compression weight of 70 Kg. 40-50 mg of compound, ubiquinone or co-crystal, were weighted. The total exposed surface area was 0.5 cm^2. • Medium: aqueous solution containing 106 mM sodium chloride, 28.4 mM monobasic sodium phosphate, and 8.7 mM sodium hydroxide, adjusted with sodium hydroxide to pH 6.50. • Dissolution tests were performed with a small-scale dissolution assay installed in a GlpKa™ titrator (Sirius Analytical Instruments, UK). • Dissolution time and temperature: 2 hours and 25° C. • Procedure: 15 mL of aqueous medium was added into the sample vial containing the tablet. Spectra were recorded every 30 seconds for 1 hour through Sirius D-PAS spectrometer, with a bifurcated optic fibre dip probe (Hellma Analytics). The medium was stirred at a constant rate.
2. HPLC-MS/MS Quantification • HPLC conditions: • Instrument: Agilent HPLC, consisting on two pumps, oven, and an autoinjector. • Column: Teknokroma C8, 150×4.6 mm, 5 μm. • Mobile phase: 5 mM ammonium formate in methanol:isopropanol (90:10). • Elution mode: isocratic. • Column temperature: 35° C. • Flow rate: 1 mL/min. • Injection volume: […]. • Retention time of ubiquinone: 8.5 min. • MS conditions: • Instrument: Linear Ion Trap Quadrupole LC/MS/MS Mass Spectrometer 6500 Q TRAP (AB SCIEX Instruments). • Curtain Gas: 25 p.s.i. • Source temperature: 400° C. • Ion Source Gas 1: 50 p.s.i. • Ion Source Gas 2: 50 p.s.i. • Ion Spray Voltage: 5500 V. • Mode: positive ionization. • Scan mode: MRM. • Transitions for ubiquinone: • Quantification: 880.8 (Q1)—197.1 (Q3); DP=100, CE=25; Dwell time=1000 ms • Confirmation: 880.8 (Q1)—149.3 (Q3); DP=90, CE=45; Dwell time=1000 ms.
Dissolution rates of the cocrystals were determined by monitoring the dissolution profile of the different coformers. Molar extinction coefficients (MEC) of the coformers were measured in water, assuming that they would be nearly identical in FaSSIF aqueous solution.
Dissolution rate of ubiquinone was determined spectrophotometrically. However, as MEC of ubiquinone couldn't be determined in water due to the low solubility of the compound in this medium, concentration of ubiquinone in the dissolution profile was determined by HPLC-MS/MS.
Noyes-Whitney first order exponential equation was fitted to experimental points, providing the dissolution rate values shown in Table 11 below.

In data set [1], `COC1=C(OC)C(=O)C(C/C=C(\C)CC/C=C(\C)CC/C=C(\C)CC/C=C(\C)CC/C=C(\C)CC/C=C(\C)CC/C=C(\C)CC/C=C(\C)CC/C=C(\C)CCC=C(C)C)=C(C)C1=O.COC1=C(OC)C(=O)C(C/C=C(\C)CC/C=C(\C)CC/C=C(\C)CC/C=C(\C)CC/C=C(\C)CC/C=C(\C)CC/C=C(\C)CC/C=C(\C)CC/C=C(\C)CCC=C(C)C)=C(C)C1=O.Cc1cc(O)cc(O)c1.Cc1cc(O)cc(O)c1.Cc1cc(O)cc(O)c1` [Compound P57-VII, Ubiquinone:orcinol cocrystal (2:3)] came in with a D10 of 2.09 μm, a D50 of 23.5 μm, a D90 of 35.5 μm and a Mean particle size of 20.9 μm. For the same compound, in data set [1], the Mode particle size is 31.5 μm; the “Percentage of particles between 9.82 μm and 57.8 μm” value (“Percentage” below) stood at 75.5%. For the same compound, in data set [2], the “Dissolution rate compared with ubiquinone (in words)” value was “highest dissolution rate” and the Dissolution rate worked out at 106 ± 23 µg/min.
As for `COC1=C(OC)C(=O)C(C/C=C(\C)CC/C=C(\C)CC/C=C(\C)CC/C=C(\C)CC/C=C(\C)CC/C=C(\C)CC/C=C(\C)CC/C=C(\C)CC/C=C(\C)CCC=C(C)C)=C(C)C1=O.COC1=C(OC)C(=O)C(C/C=C(\C)CC/C=C(\C)CC/C=C(\C)CC/C=C(\C)CC/C=C(\C)CC/C=C(\C)CC/C=C(\C)CC/C=C(\C)CC/C=C(\C)CCC=C(C)C)=C(C)C1=O.O.Oc1cc(O)cc(O)c1` [Compound P57-VIII, Ubiquinone:phloroglucinol monohydrate cocrystal (2:1:1)], in data set [1], the D10 is on record as 9.46 μm, the D50 stood at 22.2 μm, the D90 was found to be 34.0 μm and the Mean particle size is recorded as 22.0 μm. For the same compound, in data set [1], the Mode particle size turned out to be 31.5 μm; the “Percentage” value is listed as 88.9%. Also, in data set [2], the Dissolution rate was 3.5 ± 0.4 µg/min.
In data set [1], `COC1=C(OC)C(=O)C(C/C=C(\C)CC/C=C(\C)CC/C=C(\C)CC/C=C(\C)CC/C=C(\C)CC/C=C(\C)CC/C=C(\C)CC/C=C(\C)CC/C=C(\C)CCC=C(C)C)=C(C)C1=O.O=C(O)c1ccc(O)cc1` [Compound P57-III, Ubiquinone:4-hydroxybenzoic acid cocrystal (1:1)] gave a D10 of 2.51 μm, a D50 of 18.2 μm, a D90 of 36.1 μm and a Mean particle size of 19.0 μm. Besides, in data set [1], the Mode particle size turned out to be 34.6 μm; the “Percentage” value is on record as 70.5%. Besides, in data set [2], the “Dissolution rate compared with ubiquinone (in words)” value is given as “highest dissolution rate” and the Dissolution rate was found to be 56 ± 8 µg/min.
With “Ubiquinone:resorcinol cocrystal (2:1) [Compound P57-V]”, in data set [1], the Mean particle size is reported as 14.5 μm; the Mode particle size worked out at 31.5 μm; the “Percentage” value came out at 52.9%. Besides, the Dissolution rate in data set [2] was determined as 5.7 ± 0.8 µg/min.
Take `COC1=C(OC)C(=O)C(C/C=C(\C)CC/C=C(\C)CC/C=C(\C)CC/C=C(\C)CC/C=C(\C)CC/C=C(\C)CC/C=C(\C)CC/C=C(\C)CC/C=C(\C)CCC=C(C)C)=C(C)C1=O.COC1=C(OC)C(=O)C(C/C=C(\C)CC/C=C(\C)CC/C=C(\C)CC/C=C(\C)CC/C=C(\C)CC/C=C(\C)CC/C=C(\C)CC/C=C(\C)CC/C=C(\C)CCC=C(C)C)=C(C)C1=O.Oc1ccc(O)cc1` [Compound P57-VI, Ubiquinone:hydroquinone (2:1)]: in data set [1], the D10 came to 1.69 μm, the D50 was 17.0 μm, the D90 was 34.6 μm and the Mean particle size was found to be 17.2 μm. In data set [1], the Mode particle size amounted to 31.5 μm; the “Percentage” value is given as 58.3%.
Take `COC1=C(OC)C(=O)C(C/C=C(\C)CC/C=C(\C)CC/C=C(\C)CC/C=C(\C)CC/C=C(\C)CC/C=C(\C)CC/C=C(\C)CC/C=C(\C)CC/C=C(\C)CCC=C(C)C)=C(C)C1=O` [Compound P57, ubiquinone]: in data set [1], the D10 was 5.19 μm, the D50 is 28.4 μm, the D90 is listed as 41.7 μm and the Mean particle size was 26.0 μm. Moreover, in data set [1], the Mode particle size came to 38.0 μm; the “Percentage” value was 83.1%. Further, the Dissolution rate in data set [2] worked out at 0.0012 ± 0.0007 µg/min.

The values are drawn from patent US11952334B2, “Cocrystals of ubiquinone and compositions comprising them” (CENTER FOR INTELLIGENT RESEARCH IN CRYSTAL ENGINEERING, S.L., priority 2018, dated 2024).
